The source of these data is patent US9617267B2, “Compounds and methods for kinase modulation, and indications therefor” (Plexxikon Inc., priority 2009, dated 2017).

Read-outs that look alike come from different tables or passages of the source.

Usually IC50 stands for the midpoint of a concentration-inhibition curve.

One data set deals with CYP3A4(BQ) (Homo sapiens (Human), UniProt P08684). In words: CYP enzyme inhibition, fluorescent substrate BQ. In outline: (§1)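 10-pt 1:1 serial dilution in co-factor mix (DMSO stock 100 mM); 10 min preincubation, 37 °C; reaction at 37 °C. Readout: fluorescent metabolite of probe substrate. IC50 from signal vs [compound].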
CYP3A4(BQ), sequence (P08684 whole entry): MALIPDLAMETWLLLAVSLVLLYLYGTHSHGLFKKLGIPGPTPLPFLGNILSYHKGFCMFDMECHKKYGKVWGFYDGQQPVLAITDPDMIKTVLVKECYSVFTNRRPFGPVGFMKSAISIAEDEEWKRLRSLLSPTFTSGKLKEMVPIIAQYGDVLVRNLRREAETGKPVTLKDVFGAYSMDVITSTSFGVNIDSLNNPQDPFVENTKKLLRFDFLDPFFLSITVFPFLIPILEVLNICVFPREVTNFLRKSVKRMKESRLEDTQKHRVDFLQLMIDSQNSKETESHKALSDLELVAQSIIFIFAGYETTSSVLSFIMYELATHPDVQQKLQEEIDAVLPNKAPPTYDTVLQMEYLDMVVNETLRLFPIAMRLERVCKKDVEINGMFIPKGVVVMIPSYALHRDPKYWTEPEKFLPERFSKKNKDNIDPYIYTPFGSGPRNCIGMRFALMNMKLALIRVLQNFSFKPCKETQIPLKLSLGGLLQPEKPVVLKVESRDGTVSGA
Data set [1] is described as follows: Relative solubility by turbidity threshold concentration in aqueous buffers (pH 1.5, 4.5, 6.8, 7.4). Type of data set: physicochemical. The conditions noted are these: for turbidity threshold (L, M, H) 1.4: pH 1.4 [sic] (method: SGF pH 1.5); for turbidity threshold (L, M, H) 4.5: pH 4.5 (SIF); for turbidity threshold (L, M, H) 6.8: pH 6.8 (SIF); for turbidity threshold (L, M, H) 7.4: pH 7.4 (HEPES). In outline: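 Solubility class (high >250 μM, moderate 31.3–250 μM, low <31.3 μM) comes from the concentration where absorbance reaches a 0.01 threshold, averaged across 490/535/650 nm. Samples were compound dilutions from DMSO stock, 1 μL into 99 μL buffer at pH 1.5, 4.5, 6.8 or 7.4.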

A further data set has as its target CYP1A2 (Homo sapiens (Human), UniProt P05177). Put plainly: CYP enzyme inhibition, fluorescent substrate (CEC). In outline:
(§2)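 IC50 derived from loss of fluorescent metabolite across a 10-point 1:1 dilution series. CYP2D6: 1.5 pmol enzyme, 1.5 μM AMMC, 30 min at 37 °C, 409/530 nm; CYP1A2: 0.5 pmol, 5 μM CEC, 15 min, 409/460 nm. Compounds pre-incubated 10 min in NADPH-regenerating mix.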

The target of another data set is B-Raf V600E (Homo sapiens (Human), UniProt P15056, V600E). In words: B-Raf V600E kinase activity biochemical assay (AlphaScreen, biotin-MEK1 phosphorylation). The conditions noted are these: for IC50: B-Raf V600E; for Biochemical activity ratio V600E/C: ratio of IC50 B-Raf V600E / c-Raf-1. In outline:
(§3)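 Compounds from a 0.1 mM DMSO stock were tested at 8 serially diluted points. Kinase reactions with 100 μM ATP (final) ran 45 min at room temperature, then were stopped with EDTA buffer containing anti-phospho-MEK1/2 antibody plus streptavidin donor and protein A acceptor beads.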
A general note: In Alpha technology, singlet oxygen from a donor bead excites a nearby acceptor bead.

Another data set has as its target CYP2D6 (Homo sapiens (Human), UniProt P10635). In words: CYP enzyme inhibition, fluorescent substrate (AMMC). Type of data set: in vitro ADME. The conditions noted are these: read-out: Cyp IC50 2D6. In outline: as §2
The next data set concerns the target CYP2C9 (Homo sapiens (Human), UniProt P11712). Put plainly: CYP enzyme inhibition, fluorescent substrate (MFC). In short, it runs like this: as §1
For a further data set, the target named is CYP2C19 (Homo sapiens (Human), UniProt P33261). In words: CYP enzyme inhibition, fluorescent substrate (CEC). In outline:
as §1

Data set [2] relates to B-Raf. In words: B-Raf kinase activity biochemical assay (AlphaScreen, biotin-MEK1 phosphorylation). The note with it: for Biochemical activity ratio B/V600E: ratio of IC50 B-Raf / B-Raf V600E; for Biochemical activity ratio B/C: ratio of IC50 B-Raf / c-Raf-1. In outline:
as §3

In data set [3] the target is B-Raf (Homo sapiens (Human), UniProt P15056). The description is as above. The conditions noted are these: B-Raf. In outline: as §3
B-Raf (Homo sapiens (Human), UniProt P15056), sequence (P15056 whole entry): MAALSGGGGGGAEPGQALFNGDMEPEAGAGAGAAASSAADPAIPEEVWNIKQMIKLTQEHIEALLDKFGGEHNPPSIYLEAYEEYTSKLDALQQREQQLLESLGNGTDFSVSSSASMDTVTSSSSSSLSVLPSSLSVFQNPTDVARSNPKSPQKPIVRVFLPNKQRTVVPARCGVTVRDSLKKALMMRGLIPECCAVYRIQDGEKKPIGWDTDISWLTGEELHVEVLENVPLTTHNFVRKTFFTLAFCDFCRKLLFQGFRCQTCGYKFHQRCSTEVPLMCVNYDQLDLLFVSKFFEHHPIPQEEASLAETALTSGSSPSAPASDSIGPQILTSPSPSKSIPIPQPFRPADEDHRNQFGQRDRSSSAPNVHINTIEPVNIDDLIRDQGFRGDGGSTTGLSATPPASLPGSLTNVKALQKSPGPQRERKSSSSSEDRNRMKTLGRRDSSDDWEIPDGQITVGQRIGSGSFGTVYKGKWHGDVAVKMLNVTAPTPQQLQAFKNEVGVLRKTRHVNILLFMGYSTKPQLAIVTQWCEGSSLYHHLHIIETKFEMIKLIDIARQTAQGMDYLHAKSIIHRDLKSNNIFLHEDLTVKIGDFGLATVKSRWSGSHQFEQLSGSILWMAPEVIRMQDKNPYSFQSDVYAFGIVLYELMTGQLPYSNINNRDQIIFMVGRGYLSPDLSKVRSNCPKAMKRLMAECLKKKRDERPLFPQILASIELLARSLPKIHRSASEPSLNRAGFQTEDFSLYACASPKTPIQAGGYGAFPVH
For a further data set, the target named is c-Raf-1 (Homo sapiens, UniProt P04049). In words: c-Raf-1 kinase activity biochemical assay (AlphaScreen, biotin-MEK1 phosphorylation). In outline:
as §3

For another data set, the target named is CYP3A4(BFC) (Homo sapiens (Human), UniProt P08684). In words: CYP enzyme inhibition, fluorescent substrate BFC. In short, it runs like this: as §1
CYP3A4(BFC), sequence (P08684 whole entry): as the sequence (P08684 whole entry) above
[4] abbreviates: read-out: Cyp IC50 3A4(BQ), CYP3A4, substrate BQ.
[5] abbreviates: read-out: Cyp IC50 2C9, CYP2C9, substrate MFC.
Setting [6] is: read-out: Cyp IC50 2C19, CYP2C19, substrate CEC.
[7] abbreviates: read-out: Cyp IC50 3A4(BFC), CYP3A4, substrate BFC.

CYP2C19, sequence (P33261 whole entry): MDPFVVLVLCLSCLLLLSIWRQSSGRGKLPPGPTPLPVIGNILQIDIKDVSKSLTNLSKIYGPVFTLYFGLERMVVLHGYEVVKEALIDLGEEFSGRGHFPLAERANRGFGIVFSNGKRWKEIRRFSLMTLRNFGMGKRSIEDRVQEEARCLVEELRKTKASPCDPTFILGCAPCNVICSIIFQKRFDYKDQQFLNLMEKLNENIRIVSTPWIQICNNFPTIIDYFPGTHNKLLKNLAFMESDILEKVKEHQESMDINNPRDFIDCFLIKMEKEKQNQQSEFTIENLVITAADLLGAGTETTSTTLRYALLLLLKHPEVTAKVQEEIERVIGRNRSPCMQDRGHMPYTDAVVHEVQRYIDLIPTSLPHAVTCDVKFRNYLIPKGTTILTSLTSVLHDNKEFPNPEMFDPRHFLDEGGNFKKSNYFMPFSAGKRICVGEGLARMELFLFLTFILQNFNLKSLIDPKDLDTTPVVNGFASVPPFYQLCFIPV
c-Raf-1, sequence (P04049 whole entry, looked up): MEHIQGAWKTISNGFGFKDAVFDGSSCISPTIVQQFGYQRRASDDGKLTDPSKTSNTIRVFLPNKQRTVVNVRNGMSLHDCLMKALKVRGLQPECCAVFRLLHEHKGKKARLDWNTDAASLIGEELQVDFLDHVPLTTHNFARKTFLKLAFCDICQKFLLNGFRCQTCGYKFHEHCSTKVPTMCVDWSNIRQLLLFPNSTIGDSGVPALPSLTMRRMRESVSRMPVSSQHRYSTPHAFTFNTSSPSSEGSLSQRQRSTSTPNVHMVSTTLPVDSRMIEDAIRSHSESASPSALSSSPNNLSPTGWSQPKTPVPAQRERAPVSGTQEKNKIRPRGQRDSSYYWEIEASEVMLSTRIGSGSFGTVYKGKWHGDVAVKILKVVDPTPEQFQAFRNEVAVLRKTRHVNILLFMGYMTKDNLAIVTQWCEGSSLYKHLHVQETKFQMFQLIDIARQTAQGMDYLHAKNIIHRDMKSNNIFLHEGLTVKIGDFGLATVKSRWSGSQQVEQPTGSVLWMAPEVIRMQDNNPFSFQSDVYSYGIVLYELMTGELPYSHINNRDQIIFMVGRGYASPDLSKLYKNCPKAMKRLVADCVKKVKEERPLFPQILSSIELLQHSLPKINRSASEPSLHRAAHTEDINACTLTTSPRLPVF
CYP1A2, sequence (P05177 whole entry): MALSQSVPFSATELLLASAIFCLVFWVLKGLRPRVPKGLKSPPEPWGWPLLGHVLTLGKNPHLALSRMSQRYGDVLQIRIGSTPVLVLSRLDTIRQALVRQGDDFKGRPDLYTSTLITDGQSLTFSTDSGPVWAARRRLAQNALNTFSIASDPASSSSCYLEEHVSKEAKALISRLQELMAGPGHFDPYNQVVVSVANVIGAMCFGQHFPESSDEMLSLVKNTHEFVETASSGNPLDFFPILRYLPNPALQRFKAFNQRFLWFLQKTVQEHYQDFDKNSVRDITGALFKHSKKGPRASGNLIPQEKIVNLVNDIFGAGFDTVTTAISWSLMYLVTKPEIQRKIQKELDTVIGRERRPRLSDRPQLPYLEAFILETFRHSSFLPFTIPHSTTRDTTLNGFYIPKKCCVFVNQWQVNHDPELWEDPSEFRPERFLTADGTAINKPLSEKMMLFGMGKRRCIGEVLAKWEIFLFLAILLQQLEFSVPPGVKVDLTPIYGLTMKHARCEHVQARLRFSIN
CYP2D6, sequence (P10635 whole entry): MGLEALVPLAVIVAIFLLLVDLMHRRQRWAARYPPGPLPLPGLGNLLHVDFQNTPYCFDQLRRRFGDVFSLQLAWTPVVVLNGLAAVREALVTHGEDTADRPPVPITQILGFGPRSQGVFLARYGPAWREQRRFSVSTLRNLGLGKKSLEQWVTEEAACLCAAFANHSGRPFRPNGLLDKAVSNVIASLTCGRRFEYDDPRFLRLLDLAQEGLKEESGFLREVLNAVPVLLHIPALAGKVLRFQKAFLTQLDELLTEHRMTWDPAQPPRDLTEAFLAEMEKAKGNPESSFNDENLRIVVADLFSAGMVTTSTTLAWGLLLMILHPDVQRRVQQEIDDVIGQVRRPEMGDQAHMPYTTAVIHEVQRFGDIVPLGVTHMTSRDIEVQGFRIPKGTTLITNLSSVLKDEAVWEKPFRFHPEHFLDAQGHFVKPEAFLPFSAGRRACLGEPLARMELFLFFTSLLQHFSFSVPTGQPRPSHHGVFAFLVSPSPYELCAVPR
CYP2C9, sequence (P11712 whole entry): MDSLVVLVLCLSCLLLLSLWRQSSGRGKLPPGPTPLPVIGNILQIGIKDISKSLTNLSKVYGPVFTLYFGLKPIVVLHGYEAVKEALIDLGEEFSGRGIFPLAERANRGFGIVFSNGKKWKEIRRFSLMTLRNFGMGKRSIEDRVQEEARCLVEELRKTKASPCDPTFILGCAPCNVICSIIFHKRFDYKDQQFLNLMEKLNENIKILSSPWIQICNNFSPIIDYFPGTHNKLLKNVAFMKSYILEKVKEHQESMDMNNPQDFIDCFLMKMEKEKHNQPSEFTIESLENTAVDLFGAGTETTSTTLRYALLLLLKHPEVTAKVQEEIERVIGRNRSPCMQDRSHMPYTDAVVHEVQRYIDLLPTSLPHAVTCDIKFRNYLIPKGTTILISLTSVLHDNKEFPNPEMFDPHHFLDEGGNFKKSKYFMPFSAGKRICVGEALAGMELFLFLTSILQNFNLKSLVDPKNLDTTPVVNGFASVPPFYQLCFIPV
B-Raf V600E, sequence (P15056 whole entry V600E): as the sequence (P15056 whole entry) above, with V600E counted along it

In the case of `CCCc1ccc(S(=O)(=O)Nc2ccc(F)c(C(=O)c3c[nH]c4ncnc(NC5CC5)c34)c2F)cc1` [P-1040, N-[3-(4-cyclopropylamino-7H-pyrrolo[2,3-d]pyrimidine-5-carbonyl)-2,4-difluoro-phenyl]-4-propyl-benzenesulfonamide], the IC50 at CYP3A4(BQ) (setting [4]) is above 10 µM; at CYP1A2 (human, 15 min) it was above 10 µM; against B-Raf V600E, above 0.1 µM; on CYP2D6, above 10 µM; on CYP2C9 (setting [5]), above 10 µM; on CYP2C19 (setting [6]), above 10 µM. The results for the concentration for half-maximal inhibition (IC50) at B-Raf [3], against c-Raf-1 and against CYP3A4(BFC) were below 0.1 µM, below 0.1 µM and 5 to 10 µM, respectively. Besides, in [1], the “turbidity threshold (L, M, H) 1.4” value is “M (moderate solubility if the threshold concentration is 31.3 μM to 250 μM)”. For the same molecule, the “turbidity threshold (L, M, H) 4.5” value in [1] is “L (low solubility if the threshold concentration is <31.3 μM)”. The “turbidity threshold (L, M, H) 6.8” value in data set [1] is “L (low solubility if the threshold concentration is <31.3 μM)”. In addition, the “turbidity threshold (L, M, H) 7.4” value in data set [1] was “L (low solubility if the threshold concentration is <31.3 μM)”. Also, the “Biochemical activity ratio V600E/C” value at B-Raf V600E was above 10. Moreover, the “Biochemical activity ratio B/V600E” value with B-Raf [2] is given as 0.1-10. The “Biochemical activity ratio B/C” value in the data set on B-Raf [2] is listed as 0.1-10.
For the molecule `CCc1ccc(S(=O)(=O)Nc2ccc(F)c(C(=O)c3c[nH]c4ncnc(NC(C)C)c34)c2F)cc1` [P-1042, N-[2,4-Difluoro-3-(4-isopropylamino-7H-pyrrolo[2,3-d]pyrimidine-5-carbonyl)-phenyl]-4-ethyl-benzenesulfonamide], the IC50 at CYP3A4(BQ) (setting [4]) is above 10 µM; against CYP1A2 (human, 15 min), above 10 µM; at B-Raf V600E, below 0.1 µM; at CYP2D6 it was above 10 µM; at CYP2C9 (setting [5]), above 10 µM; against CYP2C19, 5 to 10 µM. Also, the figures for the IC50 against B-Raf [3], against c-Raf-1 and at CYP3A4(BFC) (setting [7]) were below 0.1 µM, below 0.1 µM and above 10 µM, respectively. Besides, the “turbidity threshold (L, M, H) 1.4” value in [1] was “M (moderate solubility if the threshold concentration is 31.3 μM to 250 μM)”. Also, the “turbidity threshold (L, M, H) 4.5” value in [1] is listed as “L (low solubility if the threshold concentration is <31.3 μM)”. In addition, the “turbidity threshold (L, M, H) 6.8” value in data set [1] was “L (low solubility if the threshold concentration is <31.3 μM)”. In addition, the “turbidity threshold (L, M, H) 7.4” value in [1] was “L (low solubility if the threshold concentration is <31.3 μM)”. For the same molecule, on B-Raf V600E, the “Biochemical activity ratio V600E/C” value is above 10. Moreover, the “Biochemical activity ratio B/V600E” value in the data set on B-Raf [2] is reported as 0.1-10. Also, the “Biochemical activity ratio B/C” value with B-Raf [2] is listed as 0.1-10.
Turning to `CCCS(=O)(=O)Nc1ccc(F)c(C(=O)c2c[nH]c3ncc(C#N)c(OC)c23)c1F` [P-2005, Propane-1-sulfonic acid [3-(5-cyano-4-methoxy-1H-pyrrolo[2,3-b]pyridine-3-carbonyl)-2,4-difluoro-phenyl]-amide], the IC50 on CYP3A4(BQ) is above 10 µM; against CYP1A2 it was above 10 µM; at B-Raf V600E it was below 0.1 µM; at CYP2D6 it was above 10 µM; at CYP2C9 it was below 5 µM; on CYP2C19 it was above 10 µM. The figures for the half-inhibitory concentration (IC50) against B-Raf [3], on c-Raf-1 and against CYP3A4(BFC) were below 0.1 µM, below 0.1 µM and above 10 µM, respectively. In addition, the “turbidity threshold (L, M, H) 1.4” value in data set [1] is listed as “M (moderate solubility if the threshold concentration is 31.3 μM to 250 μM)”. The “turbidity threshold (L, M, H) 4.5” value in data set [1] is “L (low solubility if the threshold concentration is <31.3 μM)”. Moreover, the “turbidity threshold (L, M, H) 6.8” value in data set [1] is “L (low solubility if the threshold concentration is <31.3 μM)”. Moreover, in data set [1], the “turbidity threshold (L, M, H) 7.4” value was “M (moderate solubility if the threshold concentration is 31.3 μM to 250 μM)”. For the same molecule, on B-Raf V600E, the “Biochemical activity ratio V600E/C” value was 0.1-10. In the data set on B-Raf [2], the “Biochemical activity ratio B/V600E” value is on record as 0.1-10. Moreover, the “Biochemical activity ratio B/C” value in the data set on B-Raf [2] is listed as 0.1-10.
As for `Cn1cc(Nc2ncnc3[nH]cc(C(=O)c4c(F)ccc(NS(=O)(=O)c5ccc(C(F)(F)F)cc5)c4F)c23)cn1` [P-1062, N-{2,4-Difluoro-3-[4-(1-methyl-1H-pyrazol-4-ylamino)-7H-pyrrolo[2,3-d]pyrimidine-5-carbonyl]-phenyl}-4-trifluoromethyl-benzenesulfonamide], the IC50 on CYP3A4(BQ) is 5 to 10 µM; on CYP1A2 (human, 15 min), above 10 µM; at B-Raf V600E, below 0.1 µM; at CYP2D6, above 10 µM; on CYP2C9 (setting [5]), below 5 µM; at CYP2C19 (setting [6]), above 10 µM. The IC50 against B-Raf [3] was below 0.1 µM; on c-Raf-1 it was below 0.1 µM; against CYP3A4(BFC), 5 to 10 µM. In addition, the “turbidity threshold (L, M, H) 1.4” value in data set [1] is “L (low solubility if the threshold concentration is <31.3 μM)”. In addition, the “turbidity threshold (L, M, H) 4.5” value in data set [1] is on record as “L (low solubility if the threshold concentration is <31.3 μM)”. Besides, in data set [1], the “turbidity threshold (L, M, H) 6.8” value is given as “L (low solubility if the threshold concentration is <31.3 μM)”. Moreover, in data set [1], the “turbidity threshold (L, M, H) 7.4” value is “L (low solubility if the threshold concentration is <31.3 μM)”. The “Biochemical activity ratio V600E/C” value on B-Raf V600E is given as above 10. Also, the “Biochemical activity ratio B/V600E” value in the data set on B-Raf [2] is listed as 0.1-10. In the data set on B-Raf [2], the “Biochemical activity ratio B/C” value was above 10.
In the case of `Cc1ncnc2[nH]cc(C(=O)c3c(F)ccc(NS(=O)(=O)CC(C)C)c3F)c12` [P-1003, 2-Methyl-propane-1-sulfonic acid [2,4-difluoro-3-(4-methyl-7H-pyrrolo[2,3-d]pyrimidine-5-carbonyl)-phenyl]-amide], the IC50 is 5 to 10 µM against CYP3A4(BQ); above 10 µM on CYP1A2 (human, 15 min); below 0.1 µM against B-Raf V600E; above 10 µM at CYP2D6; 5 to 10 µM against CYP2C9; above 10 µM at CYP2C19 (setting [6]). In addition, the IC50 at B-Raf [3] was above 0.1 µM; against c-Raf-1, below 0.1 µM; on CYP3A4(BFC) (setting [7]), above 10 µM. Also, in data set [1], the “turbidity threshold (L, M, H) 1.4” value is recorded as “H (high solubility if the threshold concentration is >250 μm)”. In addition, the “turbidity threshold (L, M, H) 4.5” value in [1] is given as “M (moderate solubility if the threshold concentration is 31.3 μM to 250 μM)”. For the same molecule, the “turbidity threshold (L, M, H) 6.8” value in [1] is “M (moderate solubility if the threshold concentration is 31.3 μM to 250 μM)”. In data set [1], the “turbidity threshold (L, M, H) 7.4” value is “M (moderate solubility if the threshold concentration is 31.3 μM to 250 μM)”. For the same molecule, the “Biochemical activity ratio V600E/C” value at B-Raf V600E was 0.1-10. For the same molecule, the “Biochemical activity ratio B/V600E” value in the data set on B-Raf [2] is above 10. The “Biochemical activity ratio B/C” value in the data set on B-Raf [2] was above 10.
On to `CCCc1ccc(S(=O)(=O)Nc2ccc(F)c(C(=O)c3c[nH]c4ncnc(NC(C)C)c34)c2F)cc1` [P-1055, N-[2,4-Difluoro-3-(4-isopropylamino-7H-pyrrolo[2,3-d]pyrimidine-5-carbonyl)-phenyl]-4-propyl-benzenesulfonamide], for which the half-maximal inhibitory concentration (IC50) at CYP3A4(BQ) (setting [4]) was above 10 µM; on CYP1A2 (human, 15 min), above 10 µM; against B-Raf V600E, above 0.1 µM; on CYP2D6, above 10 µM; at CYP2C9 it was 5 to 10 µM; on CYP2C19 (setting [6]) it was below 5 µM. Also, the results for the IC50 against B-Raf [3], at c-Raf-1 and on CYP3A4(BFC) were below 0.1 µM, below 0.1 µM and 5 to 10 µM, respectively. The “turbidity threshold (L, M, H) 1.4” value in [1] was “L (low solubility if the threshold concentration is <31.3 μM)”. Besides, the “turbidity threshold (L, M, H) 4.5” value in data set [1] is “L (low solubility if the threshold concentration is <31.3 μM)”. Besides, the “turbidity threshold (L, M, H) 6.8” value in data set [1] is “L (low solubility if the threshold concentration is <31.3 μM)”. Besides, the “turbidity threshold (L, M, H) 7.4” value in data set [1] is recorded as “L (low solubility if the threshold concentration is <31.3 μM)”. At B-Raf V600E, the “Biochemical activity ratio V600E/C” value is on record as above 10. Also, the “Biochemical activity ratio B/V600E” value with B-Raf [2] was 0.1-10. Further, the “Biochemical activity ratio B/C” value in the data set on B-Raf [2] was 0.1-10.
